In US10966426B2, “Herbicidal compositions comprising phenylpyrimidines” (BASF SE, priority 2016, dated 2021):

Assays:
Type in all cases: in vivo
Poa annua = experiment: greenhouse pre-emergence treatment, POAAN; details: clomazone solo (CS 360 g/l), 20 DAT
From the text: (§1) The culture containers used were plastic pots containing loamy sand with approximately 3.0% of humus as substrate. The seeds of the test plants were sown separately for each species.
(§2) For the pre-emergence treatment, the active compounds, suspended or emulsified in water, were applied directly after sowing by means of finely distributing nozzles. The containers were irrigated gently to promote germination and growth and subsequently covered with transparent plastic hoods until the plants had rooted. This cover caused uniform germination of the test plants unless this was adversely affected by the active compounds.
(§3) Depending on the species, the plants were kept at 10-25° C. and 20-35° C., respectively.
(§4) The test period extended over 2 to 4 weeks. During this time, the plants were tended and their response to the individual treatments was evaluated.
(§5) Evaluation was carried out using a scale from 0 to 100. 100 means no emergence of the plants, or complete destruction of at least the above-ground parts, and 0 means no damage or normal course of growth. A good herbicidal activity is given at values of at least 70, and very good herbicidal activity is given at values of at least 85.
(§6) The respective stated components A and B, and if appropriate, C were formulated as a 10% by weight strength emulsion concentrate and, with addition of the amount of solvent system, introduced into the spray liquor used for applying the active compound. In the examples, the solvent used was water.
(§7) In the examples below, using the method of S. R. Colby (1967) “Calculating synergistic and antagonistic responses of herbicide combinations”, Weeds 15, p. 22ff., the value E, which is expected if the activity of the individual active compounds is only additive, was calculated. E=X+Y−(X·Y/100) where X=effect in percent using herbicide A at an application rate a; • Y=effect in percent using herbicide B at application rate b; • E=expected effect (in %) of herbicide A+herbicide B at application rates a+b.

Alopecurus myosuroides = experiment: greenhouse pre-emergence treatment, ALOMY; details: clomazone solo (CS 360 g/l), 30 gai/ha, 20 DAT
From the text: as §1, §2, §3, §4, §5, §6, §7

Avena fatua = experiment: greenhouse pre-emergence treatment, AVEFA; details: Avena fatua, 480 h, read-out: % activity
In short: (§8)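 Pre-emergence spray of compounds, alone or as combinations formulated as 10% emulsion concentrate in water, directly after sowing in loamy sand (~3.0% humus); pots hooded until rooting, kept at 10-25° C or 20-35° C per species for 2 to 4 weeks. Damage scored 0-100 (100 = no emergence/complete destruction); Colby expected value E=X+Y−(X·Y/100).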

Helianthus annuus = experiment: greenhouse pre-emergence treatment, HELAN; details: Helianthus annuus, 480 h, read-out: % activity
In short: as §8

Lolium multiflorum = experiment: greenhouse pre-emergence treatment, LOLMU; details: Lolium multiflorum, 480 h, read-out: % activity
From the text: as §1, §2, §3, §4, §5, §6, §7

Polygonum convolvulus = experiment: greenhouse pre-emergence treatment, POLCO; details: Fallopia convolvulus, 480 h, read-out: % activity
From the text: as §1, §2, §3, §4, §5, §6, §7

Setaria viridis = experiment: greenhouse pre-emergence treatment, SETVI; details: SETVI, 20 DAT
From the text: as §1, §2, §3, §4, §5, §6, §7

Galium aparine = experiment: greenhouse pre-emergence treatment, GALAP; details: Galium aparine, 480 h, read-out: % activity
From the text: as §1, §2, §3, §4, §5, §6, §7

Echinocloa crus-galli = experiment: greenhouse pre-emergence treatment, ECHCG; details: clomazone solo (CS 360 g/l), 120 gai/ha, 20 DAT
From the text: as §1, §2, §3, §4, §5, §6, §7

Digitaria sanguinalis = experiment: greenhouse pre-emergence treatment, DIGSA
From the text: as §1, §2, §3, §4, §5, §6, §7

Bromus sterilis = experiment: greenhouse pre-emergence treatment, BROST; details: Bromus sterilis, 480 h, read-out: % activity
In short: as §8

Brachiaria decumbens = experiment: greenhouse pre-emergence treatment, BRADC; details: BRADC, 20 DAT; for % activity: clomazone solo (CS 360 g/l)
In short: as §8

Apera spica-venti = experiment: greenhouse pre-emergence treatment, APESV; details: clomazone solo (CS 360 g/l), 20 DAT
From the text: as §1, §2, §3, §4, §5, §6, §7

Ambrosia elatior = experiment: greenhouse pre-emergence treatment, AMBEL; details: AMBEL, 20 DAT; for % activity: clomazone solo (CS 360 g/l)
In short: as §8

## CC1(C)CON(Cc2ccccc2Cl)C1=O [clomazone]
Poa annua; 15 gai/ha
  % activity: 0%
Poa annua; 30 gai/ha
  % activity: 0%
Poa annua; 60 gai/ha
  % activity: 30%
Poa annua; 120 gai/ha
  % activity: 80%
Alopecurus myosuroides
  % activity: 0%
Avena fatua
  pest or weed control at 30 g/ha: 0%
Helianthus annuus
  plant injury at 30 g/ha: 10%
Lolium multiflorum
  pest or weed control at 60 g/ha: 40%
  pest or weed control at 120 g/ha: 60%
Polygonum convolvulus
  pest or weed control at 60 g/ha: 60%
  pest or weed control at 120 g/ha: 75%
Setaria viridis; solo clomazone (CS 360 g/l) 30 gai/ha
  % activity: 0%
Setaria viridis; clomazone solo (CS 360 g/l), 60 gai/ha
  % activity: 30%
Setaria viridis; clomazone solo (CS 360 g/l), 120 gai/ha
  % activity: 65%
Setaria viridis; clomazone solo (CS 360 g/l), 125 gai/ha
  % activity: 65%
Galium aparine
  pest or weed control at 30 g/ha: 80%
Echinocloa crus-galli
  % activity: 90%
Digitaria sanguinalis; Digitaria sanguinalis, 480 h, DIGSA, 20 DAT, solo clomazone (CS 360 g/l) 60 gai/ha
  pest or weed control at 60 g/ha: 0%
Digitaria sanguinalis; Digitaria sanguinalis, 480 h, DIGSA, 20 DAT, solo clomazone (CS 360 g/l) 120 gai/ha
  pest or weed control at 120 g/ha: 30%
Digitaria sanguinalis; Digitaria sanguinalis, 480 h, read-out: % activity
  pest or weed control at 15 g/ha: 0%
Digitaria sanguinalis; clomazone solo (CS 360 g/l), 120 gai/ha, 20 DAT, DIGSA
  % activity: 30%
Bromus sterilis
  pest or weed control at 30 g/ha: 0%
  pest or weed control at 120 g/ha: 30%
Brachiaria decumbens; Urochloa decumbens, 480 h, solo clomazone (CS 360 g/l) 15 gai/ha
  pest or weed control at 15 g/ha: 0%
Brachiaria decumbens; Urochloa decumbens, 480 h, solo clomazone (CS 360 g/l) 30 gai/ha
  pest or weed control at 30 g/ha: 0%
Brachiaria decumbens; Urochloa decumbens, 480 h, solo clomazone (CS 360 g/l) 60 gai/ha
  pest or weed control at 60 g/ha: 0%
Brachiaria decumbens; Urochloa decumbens, 480 h, solo clomazone (CS 360 g/l) 120 gai/ha
  pest or weed control at 120 g/ha: 30%
Brachiaria decumbens; 30 gai/ha
  % activity: 0%
Brachiaria decumbens; 60 gai/ha
  % activity: 0%
Brachiaria decumbens; 120 gai/ha
  % activity: 30%
Apera spica-venti; 15 gai/ha
  % activity: 20%
Apera spica-venti; 120 gai/ha
  % activity: 65%
Ambrosia elatior; Ambrosia artemisiifolia, 480 h, solo clomazone (CS 360 g/l) 15 gai/ha
  pest or weed control at 15 g/ha: 0%
Ambrosia elatior; Ambrosia artemisiifolia, 480 h, solo clomazone (CS 360 g/l) 60 gai/ha
  pest or weed control at 60 g/ha: 10%
Ambrosia elatior; Ambrosia artemisiifolia, 480 h, solo clomazone (CS 360 g/l) 120 gai/ha
  pest or weed control at 120 g/ha: 10%
Ambrosia elatior; Ambrosia artemisiifolia, 480 h, solo clomazone (CS 360 g/l) 1250 gai/ha
  pest or weed control at 1250 g/ha: 10%
Ambrosia elatior; 60 gai/ha
  % activity: 10%
Ambrosia elatior; 120 gai/ha
  % activity: 10%
